Measurements: article PMC3664642, “A Peptide against Soluble Guanylyl Cyclase α1: A New Approach to Treating Prostate Cancer” (PLoS ONE, 2013)
Entries after “also recorded” stand apart in the source; their conditions may differ.

Columns and labels:
LNCaP cells [1] = experiment: Dependence of cytotoxicity on NO signaling, LNCaP cells (MTT); assay type: cell-based; conditions: for effect of C-PTIO on cytotoxicity of Peptide A-8R: Fig. S1D
Procedure: (§1) For proliferation, cells were grown in medium containing 2% FBS extracted with dextran-coated charcoal (DCC). 48 hours later, ethanol or 1 nM R1881 was added to the cells followed by peptide treatment. The MTT assay (Sigma) was used as before to determine cell number. For apoptosis, 5000 cells were seeded in 96-well plates and treated with Vehicle (DMSO), Peptide A-8R (25 µM), Etoposide (50 µM) (Sigma) at different time points. The Caspase (3/7) activity was measured using Apo-ONE Homogeneous Caspase-3/7 assay kit (Promega). PARP cleavage was also used to measure apoptosis, and is described below.
(§2) (A) Whole-cell extracts from LNCaP cells treated with Vehicle, Peptide A-8R, or C-8R were subjected to IP using an anti-sGCα1 or anti-sGCβ1 antibody and then probed by Western blotting for sGCα1 (Upper) or sGCβ1 (Lower). Input represents amount of sGCα1 or sGCβ1 found in extracts. (B) LNCaP cells grown in the absence or presence of 1 nM R1881 were treated with Vehicle, 20 µM Peptide A-8R, 20 µM C-8R, or 8-Br-cGMP and monitored for cGMP levels using the cGMP E1A kit (Enzo Life Sciences). (C) LNCaP cells grown in the absence or presence of 8-Br-cGMP were treated with Vehicle, Peptide A-8R, or ODQ and monitored for cell density using the MTT assay. (D) LNCaP cells were treated with Vehicle or different concentrations of Peptide A-8R and C-PTIO and monitored for cell density. Bar graphs represent averages of three independent experiments plus standard deviations. Asterisks indicate statistical significance (P<0.04). (TIF) Click here for additional data file.

LNCaP cells [2] = experiment: Proliferation/cytotoxicity, LNCaP cells (MTT); assay type: cell-based; conditions: PI3K-AKT inhibitor; MTT; Fig. S3A; averages of three independent experiments
Procedure: LNCaP, C81, PC-3 and Cos cells were grown as previously described. CWR-22Rv1 cells were cultured in RMPI-1640 medium with 10% FBS and 50 µg/ml Gentamicin (Gibco). Control siRNA, sGCα1 siRNA and AKT siRNA (Dharmacon) at 50 nM final concentration was transfected into cells using Lipofectamine siMAX (Invitrogen).
as §1
(A) Four peptides were designed targeting sGCα1, with each peptide containing eight arginines at the C-terminus for membrane translocation. (B) LNCaP cells were grown in 10% serum under different concentrations of the four peptides, as shown. Cell number was measured after 0–4 days of incubation. Data points represent averages of three independent experiments plus standard deviations. Asterisks indicate statistical significance (P<0.0002) of Peptide A activity, relative to Vehicle.
Figure 2 Peptide A-8R interacts with sGCα1 in prostate cancer cells. (A) LNCaP cells were treated with 25 µM Biotin-labeled Peptide A-8R for 2 hrs and subjected to immunocytochemistry using anti-sGCα1 or anti-Biotin antibody to measure subcellular co-localization of endogenous sGCα1 and Peptide A-8R. DAPI was used to stain nuclei. (B) LNCaP cytosolic extracts were incubated with Peptide A-8R-Biotin and subjected to purification using streptavidin-agarose. This pull-down experiment was repeated with competing excess amount of unlabeled Peptide C-8R or Peptide A-8R. […] Co-purified Peptide A-8R-FITC was quantified by measuring fluorescence signal emission. […] Cell number was measured after 0–48 hrs of incubation. […]

tumor cell = conditions: ref [16], [17]; cited from earlier work
Text: In view of the rapid cytotoxicity induced by Peptide A (data not shown), we examined the possibility that ROS was involved.

[3] = system: Caspase 3/7 activity in LNCaP cells; experiment: Caspase 3/7 assay, LNCaP cells; assay type: cell-based; conditions: Peptide 10 µM, Etoposide 20 µM, 24 hrs, Fig. 5A
Procedure: as §1
Figure 5 Peptide A-8R induces apoptosis of prostate cancer cells. (A) LNCaP, (B) PC-3, or (C) Cos cells were treated with Vehicle, Peptide A-8R (10 µM), or Etoposide (20 µM) for 0–24 hrs and subjected to a Caspase assay to measure apoptosis. Bar graphs represent averages of three independent experiments plus standard deviations. All activities are relative to the first condition, and this activity was set to 1. Asterisks indicate statistical significance (P<0.005). (D) LNCaP cells were treated with Vehicle, Peptide C-8R, Peptide A-8R, or Etoposide (each drug at 50 µM) for 8 hrs and monitored for apoptosis by measuring PARP cleavage using Western blotting. Note that β-actin was used to control for protein loading.
Supplementary file pone.0064189.s005.tif: Figure S5 ROS generation is not induced by Peptide A-8R in PC-3 cells and Peptide C-8R in LNCaP cells. (A) PC-3 cells were treated with Vehicle or different concentrations of Peptide A-8R or Peptide C-8R, as shown, or (B) LNCaP cells were treated with Vehicle or different concentrations of Peptide A-8R or Peptide C-8R, or H2O2 and monitored for ROS generation after 0–30 (A) or 30 (B) min. (C) LNCaP cells were treated with Vehicle, Peptide C-8R (10 µM), Peptide A-8R (10 µM), or Etoposide (100 µM) for 0–8 hrs and subjected to a Caspase assay to measure apoptosis. Bar graphs represent averages of three independent experiments plus standard deviations. (C) All activities are relative to the first condition, and this activity was set to either 1. Asterisks indicate statistical significance (P<0.006) of all values compared to Vehicle (B) or to 0 hour (C). (TIF) Click here for additional data file.

C81 cells [4] = experiment: DAPI DNA staining, C81 cells; assay type: cell-based; conditions: 5 mM NAC, 2 hrs, Fig. S6
Procedure: C81 cells were first treated with or without 5 mM NAC for 2 hrs and then Vehicle or different concentrations of Peptide A-8R, as shown, for 1 hr and stained with DAPI. Phase contrast images are shown. (TIF) Click here for additional data file.

DNA damage in C81 cells = experiment: Comet assay (DNA damage); assay type: cell-based; conditions: 5 mM NAC, 2-hour pretreatment; Fig. 4C
Procedure: C81 cells were treated with Peptide A-8R for 1 hour, following a 2-hour pretreatment with 5 mM NAC or Vehicle, and trypsinized, and mixed with Comet LM-Agarose (CometAssay, […]) and transferred to slides. Electrophoresis and Sybr-Green staining was carried out according to manufacturer’s protocol.
(§3) Figure 4 Peptide A-8R kills prostate cancer cells by mediating ROS generation. (A) C81 cells were treated with Vehicle or different µMolar concentrations of Peptide A-8R and without or with 0–5 mM NAC and monitored for ROS generation after 0–30 min as measured by fluorescence intensity (FI). Bar graphs represent averages of three independent experiments plus standard deviations. Note that asterisks on bar graphs found with NAC are compared to equivalent data without NAC. (B) C81 cells were treated with Vehicle or different concentrations of Peptide A-8R, as shown, and 0–5 mM NAC, as shown, and monitored for cell number after 0–6 days of incubation as measured by MTT assay. Data points represent averages of three independent experiments plus standard deviations. Asterisks indicate statistical significance (P<0.04). (C) C81 cells were treated with Vehicle or different concentrations of Peptide A-8R, as shown, and with or without 5 mM NAC, as shown, and monitored DNA damage after 1 hr incubation as measured by Comet assay.

C81 cells [5] = experiment: NAC rescue of proliferation of Peptide A-8R-treated cells (MTT); assay type: cell-based; conditions: for NAC rescue of proliferation: C81, NAC 1 or 5 mM, 2 h pretreatment, 0–6 days
Procedure: as §1
Intracellular ROS levels were evaluated using the fluorescent probe 5-(and-6)-chloromethyl-2′,7′-dichlorodihydrofluorescein diacetate (CM-H2DCFDA) (Invitrogen). After treatments with Peptide A-8R, C81 cells were loaded with 20 µM CM-H2DCFDA and incubated at 37°C for 30 min in the dark. Cells were then washed with PBS and fluorescence was measured at the excitation and emission wavelengths of 490 and 535 nm, respectively, using a multi-well fluorescence plate reader. For NAC (N-acetyl cysteine) (Sigma) rescue experiment, cells were pretreated with 1 or 5 mM NAC for 2 hours before adding Peptide A-8R.
as §3

sGC = experiment: cGMP levels in LNCaP cells (ELISA); assay type: cell-based; conditions: 1 nM R1881 absent or present, 20 µM peptide, cGMP EIA kit, Fig. S1B
Procedure: as §2

Structure (SMILES): Nc1nc2c(nc(Br)n2[C@@H]2O[C@@H]3COP(=O)(O)O[C@H]3[C@H]2O)c(=O)[nH]1 [Peptide 8-Br-cGMP]
- effect of added agent on Vehicle- or Peptide A-8R-treated cells (cell density) (LNCaP cells [1]; MTT, Fig. S1C): had no effect on Vehicle- or Peptide A-8R-treated cells
- rescue of ODQ-treated cells (cell density) (LNCaP cells [1]; MTT, ODQ-treated, Fig. S1C): able to partially rescue cells treated with the sGC enzyme inhibitor ODQ

Structure (SMILES): O=c1cc(N2CCOCC2)oc2c(-c3ccccc3)cccc12 [LY294002, reference compound]
- LNCaP cell proliferation (LNCaP cells [2]): dramatically repressed LNCaP cell proliferation

Structure (SMILES): CC1(C)N([O])C(c2ccc(C(=O)O)cc2)=[N+]([O-])C1(C)C [C-PTIO]
- effect of C-PTIO on cytotoxicity of Peptide A-8R (LNCaP cells [1]; Peptide A-8R at 50 µM): interestingly not 50 µM
- effect of C-PTIO on cytotoxicity of Peptide A-8R (LNCaP cells [1]; Peptide A-8R at 10 and 25 µM, P<0.04): enhanced rather than relieved the cytotoxicity of Peptide A-8R at 10 and 25 µM

Structure (SMILES): N.N.[Cl][Pt][Cl] [cisplatin]
- tumor cell death by elevating ROS (tumor cell): induce tumor cell death by elevating levels of reactive oxygen species

Structure (SMILES): COc1cc([C@@H]2c3cc4c(cc3[C@@H](O[C@@H]3O[C@@H]5CO[C@@H](C)O[C@H]5[C@H](O)[C@H]3O)[C@H]3COC(=O)[C@H]23)OCO4)cc(OC)c1O [Etoposide, reference compound]
- Caspase 3/7 activity [3]: induced similar levels of Caspase activity as did Peptide A-8R, but only after 24 hrs of treatment

Structure (SMILES): CC(=O)N[C@@H](CS)C(=O)O [NAC, N-acetyl cysteine]
- effect of NAC on cells treated with 50 µM Peptide A-8R (DAPI) (C81 cells [4]): had no effect
- inhibition of Peptide A-8R-induced DNA damage (DNA damage in C81 cells): completely blocked
- NAC rescue of proliferation (C81 cells [5]; 10 µM Peptide A-8R, Fig. 4B (P<0.04)): able to completely rescue the proliferation
- NAC rescue of proliferation (C81 cells [5]; 25 µM Peptide A-8R, Fig. 4B (P<0.04)): nearly completely
- NAC rescue of proliferation (C81 cells [5]; 50 µM Peptide A-8R, Fig. 4B): failed to significantly rescue the growth; also recorded: only marginally rescued
- NAC rescue (discussion) (C81 cells [5]; 10 and 25 µM Peptide A-8R): strong rescue

Structure (SMILES): C[C@]1(O)CC[C@H]2[C@@H]3CCC4=CC(=O)CCC4=C3C=C[C@@]21C [Peptide R1881, reference compound]
- cGMP levels (sGC): markedly elevated cGMP levels

Structure (SMILES): COc1cccc2c1C(=O)c1c(O)c3c(c(O)c1C2=O)C[C@@](O)(C(=O)CO)C[C@@H]3O[C@H]1C[C@H](N)[C@H](O)[C@H](C)O1 [doxorubicin]
- tumor cell death by elevating ROS (tumor cell): induce tumor cell death by elevating levels of reactive oxygen species
